The values that follow come from US12435062B2, “Amide compounds and uses thereof” (HUTCHISON MEDIPHARMA LIMITED, priority 2020, dated 2025).

A word on the IC50: it is the concentration at which inhibition is half-maximal.

In test [1] the target is Recombinant human CSF1R kinase (Homo sapiens (Human), UniProt P07333). In kind it is biochemical. The following applies: Z-LYTE Tyr 1 peptide substrate.
Test [2] has as its system Ba/F3^BCR-FMS-11 cells. As to the kind of experiment: Cell proliferation experiment (Ba/F3^BCR-FMS-11, cckit-8). Type of test: cell-based, mouse. To be noted: Mus musculus, Ba/F3^BCR-FMS-11 cell proliferation. The method, then:
Cell Proliferation Experiment
Ba/F3^BCR-FMS-11, mouse primary B lymphocytes stably expressing the BCR-FMS fusion gene. The cells were cultured in an RPMI 1640 medium containing 10% FBS.
2. Reagents and instruments
• cckit-8 kit: Dojindo, 9 CK04; • Envision: Perkin Elmer; • Cell culture plate: Facol, 9353027. 3. Experimental steps
The BCR-FMS fusion gene was transfected into Ba/F3 cells, and the cell line Ba/F3^BCR-FMS-11 that stably expresses BCR-FMS and grows depending on CSF-1R was screened. Ba/F3^BCR-FMS-11 cell proliferation experiments is completed by using the Cell Counting kit cckit-8 in a 96-well plate. In a 96-well plate, 5000/well of Ba/F3^BCR-FMS-11 cells were inoculated at 100 μL/well. […] 10 μL of the compound dilutions with the above 8 concentrations were added to the culture cell wells. The culture was incubated in a 37° C. and 5% CO2 cell incubator for 72 hours. 10 μL of Cell Counting kit cckit-8 detection reagent was added to each well, and incubated at 37° C. and 5% CO2 in a cell incubator for another 1 h. The optical density absorption value at 450 nm of each well was detected by using Perkin Elmer Envision instrument.
wherein • Drug-treated well read-out: indicating the optical density signal of a cell well with the test compound treatment. • Cell well read-out: indicating the optical density signal of a cell well not treated with the test compound (only 0.5% DMSO). • Background read-out: indicating the optical density signal of a well with the cell medium. 5. Calculation of IC50: obtained by using XL-Fit 5.3 software. 6. Test results

Sequence of Recombinant human CSF1R kinase (P07333 20-972): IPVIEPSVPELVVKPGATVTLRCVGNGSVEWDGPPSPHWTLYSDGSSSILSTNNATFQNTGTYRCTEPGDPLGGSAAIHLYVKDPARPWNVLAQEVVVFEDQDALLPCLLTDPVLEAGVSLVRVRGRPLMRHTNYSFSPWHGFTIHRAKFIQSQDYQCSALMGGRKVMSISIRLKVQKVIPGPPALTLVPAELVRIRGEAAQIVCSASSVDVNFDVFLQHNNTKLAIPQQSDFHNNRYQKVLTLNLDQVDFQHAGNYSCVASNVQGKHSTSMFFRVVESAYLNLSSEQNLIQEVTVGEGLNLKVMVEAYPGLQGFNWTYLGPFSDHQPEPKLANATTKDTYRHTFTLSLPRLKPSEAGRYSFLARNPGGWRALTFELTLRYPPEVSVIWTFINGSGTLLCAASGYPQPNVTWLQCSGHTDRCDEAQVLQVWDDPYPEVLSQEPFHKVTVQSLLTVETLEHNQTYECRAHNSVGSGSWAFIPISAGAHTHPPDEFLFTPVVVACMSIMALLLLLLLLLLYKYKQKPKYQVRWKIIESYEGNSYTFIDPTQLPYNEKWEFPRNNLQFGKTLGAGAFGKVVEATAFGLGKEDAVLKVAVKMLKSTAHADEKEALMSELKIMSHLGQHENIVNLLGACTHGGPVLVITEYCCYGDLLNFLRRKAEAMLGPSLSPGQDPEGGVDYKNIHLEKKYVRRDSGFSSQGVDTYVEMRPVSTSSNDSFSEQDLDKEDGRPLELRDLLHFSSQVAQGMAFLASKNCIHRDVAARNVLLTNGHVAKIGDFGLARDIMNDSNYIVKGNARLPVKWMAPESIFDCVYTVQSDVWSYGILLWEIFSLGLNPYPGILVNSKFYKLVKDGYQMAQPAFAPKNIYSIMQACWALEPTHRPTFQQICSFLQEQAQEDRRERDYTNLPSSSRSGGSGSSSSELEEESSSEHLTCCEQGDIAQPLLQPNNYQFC

Consider `CC(C)n1c(N(C)C)ccc(C(=O)Nc2ccc(Oc3ccnc(-c4cnn(C)c4)c3)cn2)c1=O` [Compound 1, 6-(dimethylamino)-1-isopropyl-N-(5-((2-(1-methyl-1H-pyrazol-4-yl)pyridin-4-yl)oxy)pyridin-2-yl)-2-oxo-1,2-dihydropyridine-3-carboxamide], for which the 50% inhibitory concentration (IC50) in test [1] stood at 217 nM. Molecule `CN(C)c1ccc(C(=O)Nc2ccc(Oc3ccnc(-c4cnn(C)c4)c3)cn2)c(=O)n1C` [Compound 2, 6-(dimethylamino)-1-methyl-N-(5-((2-(1-methyl-1H-pyrazol-4-yl)pyridin-4-yl)oxy)pyridin-2-yl)-2-oxo-1,2-dihydropyridine-3-carboxamide] came in with an IC50 in test [2] (72 hours) of 11 nM.

Turning to `Cc1ncc(C(=O)Nc2ccc(Oc3ccnc(-c4cnn(CCN(C)C)c4)c3)cn2)c(=O)n1C` [Compound 14], inhibition in test [2] (72 h) was half-maximal at 44 nM (IC50). Take `Cc1cc(Oc2ccnc(-c3cnn(C)c3)c2)ccc1NC(=O)c1cccn(C(C)C)c1=O` [Compound 19]: the IC50 in test [1] came to 274 nM. Molecule `Cn1cc(-c2cc(Oc3ccc(NC(=O)c4cnc5ccccn5c4=O)nc3)ccn2)cn1` [Compound 26] came in with an IC50 in test [2] (72 h) of 10 nM. As for `Cn1cccc(C(=O)Nc2ccc(Oc3ccnc(-n4cncn4)c3)cn2)c1=O` [Compound 29], the IC50 in test [1] is 173 nM. The same measure, in the same setting: under `Cc1ncc(C(=O)Nc2ccc(Oc3ccnc(-c4cncn4C)c3)cn2)c(=O)n1C` [Compound 31] stands 689 nM; under `Cc1cc(Nc2cc(Oc3ccc(NC(=O)c4cnc(C)n(C)c4=O)nc3)ccn2)ccn1` [Compound 35], 113 nM; under `Cn1cccc(C(=O)Nc2ccc(Oc3ccnc(-n4cccn4)c3)cn2)c1=O` [Compound 37], 169 nM. Turning to `Cn1cc(-c2cc(Oc3ccc(NC(=O)c4cn(C)c(=O)n(C)c4=O)nc3)ccn2)cn1` [Compound 40], the IC50 in test [2] (72 h) came to 46 nM. Regarding `COc1cc(Oc2ccnc(-c3cnn(C)c3)c2)ccc1NC(=O)c1cnc(C)n(C)c1=O` [Compound 53], in test [1], the IC50 came out at 135 nM. On to `CC(C)n1ccnc(C(=O)Nc2ccc(Oc3ccnc(-c4cnn(C)c4)c3)cn2)c1=O` [Compound 59], for which the IC50 in test [1] worked out at 121 nM. `Cn1cc(-c2cc(Oc3ccc(NC(=O)c4cnc(C5CC5)n(C)c4=O)nc3)ccn2)cn1` [Compound 74] showed an IC50 in test [2] (72 h) of 12 nM. For `Cn1cc(-c2cc(Oc3ccc(NC(=O)c4cccn(CC(F)(F)F)c4=O)nc3)ccn2)cn1` [Compound 87], half-maximal inhibition in test [2] (72 h) (IC50) required 6 nM. The molecule `COc1cc(Oc2ccnc(-c3cnn(C)c3)c2)cnc1NC(=O)c1cccn(C(C)C)c1=O` [Compound 92, 1-isopropyl-N-(3-methoxy-5-((2-(1-methyl-1H-pyrazol-4-yl)pyridin-4-yl)oxy)pyridin-2-yl)-2-oxo-1,2-dihydropyridine-3-carboxamide] had an IC50 in test [2] (72 h) of 567 nM. In the case of `Cn1cccc(C(=O)Nc2ccc(Oc3ccnc(-c4cnn(CCO)c4)c3)cn2)c1=O` [Compound 94, N-(5-((2-(1-(2-hydroxyethyl)-1H-pyrazol-4-yl)pyridin-4-yl)oxy)pyridin-2-yl)-1-methyl-2-oxo-1,2-dihydropyridine-3-carboxamide], the IC50 in test [2] (72 h) is 142 nM. Take `CCN1CCN(c2cc(Oc3ccc(NC(=O)c4cccn(C(C)C)c4=O)nc3)ccn2)CC1` [Compound 98, N-(5-((2-(4-ethylpiperazin-1-yl)pyridin-4-yl)oxy)pyridin-2-yl)-1-isopropyl-2-oxo-1,2-dihydropyridine-3-carboxamide]: the IC50 in test [1] is 484 nM. In the case of `Cc1ncc(C(=O)Nc2ccc(Oc3ccnc(-c4cnn(CCN)c4)c3)cn2)c(=O)n1C` [Compound 109, N-(5-((2-(1-(2-aminoethyl)-1H-pyrazol-4-yl)pyridin-4-yl)oxy)pyridin-2-yl)-1,2-dimethyl-6-oxo-1,6-dihydropyrimidine-5-carboxamide], in test [1], the IC50 was determined as 177 nM. As for `CNCCn1cc(-c2cc(Oc3ccc(NC(=O)c4cnc(C)n(C)c4=O)nc3)ccn2)cn1` [Compound 110], the IC50 in test [1] turned out to be 111 nM. As to `Cc1ncc(C(=O)Nc2ccc(Oc3ccnc(-c4nccs4)c3)cn2)c(=O)n1C` [Compound 119], the IC50 in test [1] turned out to be 467 nM.

For the molecule `Cc1ncc(C(=O)Nc2ccc(Oc3ccnc(C4=CCCCC4)c3)cn2)c(=O)n1C` [Compound 121], the IC50 in test [1] came out at 413 nM. The same measure, in the same setting: under `Cc1ccc(-c2cc(Oc3ccc(NC(=O)c4cnc(C)n(C)c4=O)nc3)ccn2)o1` [Compound 122] stands 55 nM. On to `Cn1cc(-c2cc(Oc3ccc(NC(=O)c4cnc(O)n(C)c4=O)nc3)ccn2)cn1` [Compound 134, 2-hydroxy-1-methyl-N-(5-((2-(1-methyl-1H-pyrazol-4-yl)pyridin-4-yl)oxy)pyridin-2-yl)-6-oxo-1,6-dihydropyrimidine-5-carboxamide], for which it took 526 nM to reach half-maximal inhibition in test [2] (72 h) (IC50). With `Cc1ncc(C(=O)Nc2ccc(Oc3ccnc(-c4cn(C)nc4O)c3)cn2)c(=O)n1C` [Compound 135, N-(5-((2-(3-hydroxy-1-methyl-1H-pyrazol-4-yl)pyridin-4-yl)oxy)pyridin-2-yl)-1,2-dimethyl-6-oxo-1,6-dihydropyrimidine-5-carboxamide], the values for the IC50 in test [1] and in test [2] (72 h) were 12 nM and 7 nM, respectively.
